Assay results taken from DBAASP.
Converted amounts (≈) assume the structure as drawn. “And” between values parts separate entries of the source, which are not always exact repeats. Equal entries are not always repeated. One block for each molecule: values may come before it.

What was measured:
Assay in all cases: ≥ marks a high value that may be exact or a test limit, other limits are often not marked, values filed in µg/mL are converted to µM
[1] = tested on: Mycobacterium tuberculosis H37Rv
[2] = tested on: Escherichia coli ATCC 25922
[3] = tested on: Batrachochytrium dendrobatidis
[4] = tested on: Staphylococcus aureus FDA 209P
[5] = tested on: Pseudomonas aeruginosa ATCC BAA-427
[6] = tested on: Bacillus subtilis ATCC 6633
[7] = tested on: Escherichia coli ATCC 10536
[8] = tested on: Staphylococcus aureus ATCC 25923
[9] = tested on: Escherichia coli IFO 12734
[10] = tested on: Bacillus subtilis IFO 3513
[11] = tested on: Staphylococcus aureus IFO 12732
[12] = tested on: Acinetobacter baumannii ATCC 19606
[13] = tested on: Pseudomonas aeruginosa ATCC 27853
[14] = tested on: Candida krusei ATCC 20029
[15] = tested on: Staphylococcus aureus ATCC 33591
[16] = tested on: Staphylococcus epidermidis ATCC 12228
[17] = tested on: Cryptococcus neoformans ATCC 24067
[18] = tested on: Cryptococcus gattii ATCC 32608
[19] = tested on: Candida albicans TIMM 1768
[20] = tested on: Salmonella typhimurium KCTC 1926
[21] = tested on: Trichosporon beigelii KCTC 7707
[22] = tested on: Pseudomonas aeruginosa KCTC 1637
[23] = tested on: Bacillus subtilis KCTC 1918
[24] = tested on: Staphylococcus epidermidis KCTC 3096
[25] = tested on: Escherichia coli BW25113 ΔsbmA
[26] = tested on: Serratia marcescens ATCC 8100
Escherichia coli BW25113 = tested on: Escherichia coli BW25113
Escherichia coli ML-35 = tested on: Escherichia coli ML-35
Escherichia coli TOP 10 = tested on: Escherichia coli TOP 10
Escherichia coli HB101 = tested on: Escherichia coli HB101
[27] = tested on: Salmonella enterica subsp. enterica serovar Typhimurium ATCC 14028
[28] = tested on: Staphylococcus aureus RN4220
[29] = tested on: Malassezia sympodialis ATCC 42132
Escherichia coli ML-35p = tested on: Escherichia coli ML-35p

MIC [1]: ≥ 112 µM
SMILES: CC[C@H](C)[C@H](NC(=O)[C@@H]1CCCN1C(=O)[C@H](CCCN=C(N)N)NC(=O)CNC(=O)[C@H](C)NC(=O)[C@H](CCCN=C(N)N)NC(=O)[C@H](Cc1cnc[nH]1)NC(=O)[C@H](C)NC(=O)[C@H](C)N)C(=O)N[C@@H](Cc1cnc[nH]1)C(=O)N[C@@H](CC(=O)O)C(=O)N[C@@H](C)C(=O)NCC(=O)N[C@H](C(=O)N[C@H](C(=O)N[C@@H](CCCCN)C(=O)N[C@@H](CCC(N)=O)C(=O)O)C(C)C)C(C)C [AAHRAGRPIHDAGVVKQ]

MIC [2]: 2.8 µM (≈ 13.4 µg/mL)
MIC [3]: 25 µM and 12.5 µM
MIC [4]: 4.3 µM (≈ 20.6 µg/mL)
SMILES: CC[C@H](C)[C@H](NC(=O)CN)C(=O)N[C@@H](Cc1ccccc1)C(=O)N[C@@H](CO)C(=O)N[C@@H](CCCCN)C(=O)N[C@@H](CC(C)C)C(=O)N[C@@H](C)C(=O)NCC(=O)N[C@@H](CCCCN)C(=O)N[C@@H](CCCCN)C(=O)N[C@H](C(=O)N[C@@H](CCCCN)C(=O)N[C@@H](CC(N)=O)C(=O)N[C@@H](CC(C)C)C(=O)N[C@@H](CC(C)C)C(=O)N[C@H](C(=O)N[C@@H](CO)C(=O)NCC(=O)N[C@@H](CC(C)C)C(=O)N[C@@H](CCCCN)C(=O)N[C@@H](CC(N)=O)C(=O)N[C@H](C(=O)NCC(=O)N[C@@H](CCCCN)C(=O)N[C@@H](CCC(=O)O)C(=O)N[C@H](C(=O)NCC(=O)N[C@@H](CCSC)C(=O)N[C@@H](CC(=O)O)C(=O)N[C@H](C(=O)N[C@H](C(=O)N[C@@H](CCCN=C(N)N)C(=O)N[C@H](C(=O)NCC(=O)N[C@H](C(=O)N[C@@H](CC(=O)O)C(=O)N[C@H](C(=O)N[C@@H](C)C(=O)NCC(=O)N[C@H]1CSSC[C@@H](C(=O)O)NC(=O)[C@H](CCC(=O)O)NC(=O)CNC(=O)[C@H](CCCCN)NC(=O)[C@H]([C@@H](C)CC)NC(=O)[C@H](CCCCN)NC1=O)[C@@H](C)CC)[C@@H](C)CC)[C@@H](C)O)C(C)C)C(C)C)C(C)C)C(C)C)[C@@H](C)CC)[C@@H](C)CC [GIFSKLAGKKIKNLLISGLKNVGKEVGMDVVRTGIDIAGCKIKGEC]

MIC [5]: 8 µM (≈ 12.1 µg/mL)
MIC [6]: 2 µM (≈ 3.04 µg/mL)
MIC [7]: 4 µM (≈ 6.07 µg/mL)
MIC [2]: 8 µM (≈ 12.1 µg/mL)
MIC [8]: 8 µM (≈ 12.1 µg/mL)
SMILES: CC[C@H](C)[C@H](N)C(=O)N[C@@H](CC(C)C)C(=O)NCC(=O)N[C@@H](CCCCN)C(=O)N[C@H](C(=O)N[C@@H](Cc1c[nH]c2ccccc12)C(=O)N[C@@H](CCC(=O)O)C(=O)NCC(=O)N[C@@H](CCCCN)C(=O)N[C@@H](CCCCN)C(=O)N[C@@H](CO)C(=O)N[C@@H](CC(C)C)C(=O)N[C@@H](Cc1ccccc1)C(N)=O)[C@@H](C)CC [ILGKIWEGKKSLF]

MIC [9]: ≥ 55.8 µM
MIC [10]: 3.49 µM (≈ 6.25 µg/mL)
MIC [11]: 3.49 µM (≈ 6.25 µg/mL)
SMILES: CC[C@H](C)[C@H](N)C(=O)N[C@@H](CC(C)C)C(=O)N1CCC[C@H]1C(=O)N[C@@H](CCCCN)C(=O)N[C@@H](CCCCN)C(=O)N[C@@H](CCCCN)C(=O)N1CCC[C@H]1C(=O)N[C@@H](Cc1c[nH]c2ccccc12)C(=O)N[C@@H](Cc1c[nH]c2ccccc12)C(=O)N1CCC[C@H]1C(=O)N[C@@H](Cc1c[nH]c2ccccc12)C(=O)N[C@@H](CCCN=C(N)N)C(=O)N[C@@H](CCCN=C(N)N)C(N)=O [ILPKKKPWWPWRR]

MIC [9]: 7.28 µM (≈ 12.5 µg/mL)
MIC [10]: 0.908 µM (≈ 1.56 µg/mL)
MIC [11]: 1.82 µM (≈ 3.13 µg/mL)
SMILES: CC[C@H](C)[C@H](N)C(=O)N[C@@H](CC(C)C)C(=O)N1CCC[C@H]1C(=O)N[C@@H](Cc1c[nH]c2ccccc12)C(=O)N[C@@H](CCCCN)C(=O)N[C@@H](CCCCN)C(=O)N1CCC[C@H]1C(=O)N[C@@H](CCCCN)C(=O)N[C@@H](CC(C)C)C(=O)N1CCC[C@H]1C(=O)N[C@@H](Cc1c[nH]c2ccccc12)C(=O)N[C@@H](CCCN=C(N)N)C(=O)N[C@@H](CCCN=C(N)N)C(N)=O [ILPWKKPKLPWRR]

MIC [12]: 5.27 µM (≈ 8.97 µg/mL)
MIC [13]: 37.6 µM (≈ 64 µg/mL)
MIC [14]: ≥ 37.6 µM
MIC [15]: 4.7 µM (≈ 8 µg/mL)
MIC [16]: 4.18 µM (≈ 7.11 µg/mL)
MIC [17]: 14.9 µM (≈ 25.4 µg/mL)
MIC [18]: 3.73 µM (≈ 6.35 µg/mL)
MIC [2]: 14.9 µM (≈ 25.4 µg/mL)
SMILES: CC[C@H](C)[C@H](N)C(=O)N[C@@H](Cc1c[nH]c2ccccc12)C(=O)N[C@@H](CC(C)C)C(=O)N[C@H](C(=O)N[C@@H](C)C(=O)N[C@@H](CC(C)C)C(=O)N[C@@H](CCCCN)C(=O)N[C@@H](Cc1ccccc1)C(=O)N[C@@H](CC(C)C)C(=O)NCC(=O)N[C@@H](CCCCN)C(=O)N[C@@H](CC(N)=O)C(=O)N[C@@H](CC(C)C)C(=O)NCC(=O)N[C@@H](CCCCN)C(N)=O)[C@@H](C)O [IWLTALKFLGKNLGK]

MIC [19]: 12.5 µM (≈ 26.1 µg/mL)
MIC [20]: 0.19 µM (≈ 0.397 µg/mL)
MIC [21]: 6.25 µM (≈ 13.1 µg/mL)
MIC [22]: 1.56 µM (≈ 3.26 µg/mL)
MIC [23]: 3.12 µM (≈ 6.52 µg/mL)
MIC [24]: 3.12 µM (≈ 6.52 µg/mL)
SMILES: CC[C@H](C)[C@H](NC(=O)CNC(=O)[C@@H](NC(=O)[C@H](CCCCN)NC(=O)[C@H](CCCCN)NC(=O)[C@H](Cc1ccccc1)NC(=O)[C@H](CC(C)C)NC(=O)[C@H](CCCCN)NC(=O)[C@H](Cc1c[nH]c2ccccc12)NC(=O)[C@H](CCCCN)NC(=O)[C@H](CCCCN)NC(=O)[C@H](CCCCN)NC(=O)[C@@H](N)CCCCN)[C@@H](C)CC)C(=O)NCC(=O)N[C@@H](CCCCN)C(=O)N[C@@H](Cc1ccccc1)C(=O)N[C@@H](CC(C)C)C(N)=O [KKKKWKLFKKIGIGKFL]

MIC [25]: ≥ 52.1 µM
MIC [26]: 4 µM (≈ 11.5 µg/mL)
MIC (Escherichia coli BW25113): 7.4 µM (≈ 21.3 µg/mL)
MIC (Escherichia coli ML-35): 1 µM (≈ 2.88 µg/mL)
MIC (Escherichia coli TOP 10): 4.6 µM (≈ 13.3 µg/mL)
MIC (Escherichia coli HB101): 0.5 µM (≈ 1.44 µg/mL)
MIC [8]: > 128 µM
MIC [27]: 2 µM (≈ 5.76 µg/mL)
SMILES: CC[C@H](C)[C@H](NC(=O)[C@H](CCCN=C(N)N)NC(=O)[C@@H](N)CCCN=C(N)N)C(=O)N[C@@H](CCCN=C(N)N)C(=O)N1CCC[C@H]1C(=O)N[C@@H](CCCN=C(N)N)C(=O)N1CCC[C@H]1C(=O)N1CCC[C@H]1C(=O)N[C@@H](CCCN=C(N)N)C(=O)N[C@@H](CC(C)C)C(=O)N1CCC[C@H]1C(=O)N[C@@H](CCCN=C(N)N)C(=O)N1CCC[C@H]1C(=O)N[C@@H](CCCN=C(N)N)C(=O)N1CCC[C@H]1C(=O)N[C@@H](CCCN=C(N)N)C(=O)N1CCC[C@H]1C(=O)N[C@@H](CC(C)C)C(=O)N1CCC[C@H]1C(=O)N[C@@H](Cc1ccccc1)C(=O)N1CCC[C@H]1C(=O)N[C@@H](CCCN=C(N)N)C(=O)N1CCC[C@H]1C(=O)O [RRIRPRPPRLPRPRPRPLPFPRP]

MIC [28]: ≥ 100 µM
MIC [29]: 9.83 µM (≈ 14 µg/mL)
MIC (Escherichia coli ML-35p): ≥ 100 µM
SMILES: NC(=O)[C@H](CCCN=C(N)N)NC(=O)[C@H](CCCN=C(N)N)NC(=O)[C@H](CCCN=C(N)N)NC(=O)[C@H](CCCN=C(N)N)NC(=O)[C@H](CCCN=C(N)N)NC(=O)[C@H](CCCN=C(N)N)NC(=O)[C@H](CCCN=C(N)N)NC(=O)[C@H](CCCN=C(N)N)NC(=O)[C@@H](N)CCCN=C(N)N [RRRRRRRRR]
